{"source": "patent US20240287089A1", "about": "“Preparation and Uses of 7-Azaindenoisoquinolines” (Purdue Research Foundation, priority 0001, published 2024)", "key": {"[1]": {"system": "c-Myc", "assay": "Western blot of RS4;11 tumor xenograft tissue", "format": "in vivo, human", "text": "(§1) In several cases, the levels of c-Myc were more greatly depressed at the lower dose level. For examples, see the 9-hour data for G104 in Tables 17 and 18 and the 6-hour data in Table 19. […] Overall, there are many unexpected and unexplained aspects of the data in Tables 17-19, which are highly variable and also highly dependent on cell type. In particular, drug-induced increases in c-Myc expression relative to control and the larger changes in c-Myc expression seen at lower vs. higher doses are counterintuitive and unexplained."}, "[2]": {"system": "γ-H2AX", "assay": "Western blot of MOLT-4 tumor xenograft tissue", "format": "in vivo, human", "text": "as §1"}, "[3]": {"system": "RS4;11 human leukemia cells", "assay": "RS4;11 xenograft in female NOD SCID mice", "format": "in vivo", "procedure": "(§2) Xenograft Studies. […] JQ1 was employed as a positive control.\nThe compounds were also evaluated in an RS4;11 human leukemia xenograft model (FIGS. 20 and 21). Treatment was started 12 days after tumor inoculation, with drugs being administered on days 1-5 and 11-15 after the start of treatment. Animal weights and tumor volumes were determined at 12, 15, 19, 22, and 25 days after tumor inoculation."}, "[4]": {"assay": "Pharmacokinetics IV and PO in male CD1 mice"}, "[5]": {"system": "γ-H2AX", "assay": "Western blot of RS4;11 tumor xenograft tissue", "format": "in vivo, human"}, "[6]": {"system": "MYC mRNA in MCF-7 breast cancer cells", "assay": "qRT-PCR of MYC mRNA", "format": "cell-based", "conditions": "MCF-7, 1.0 μM, 6 h", "procedure": "Quantitative Reverse Transcriptase PCR (qRT-PCR). MCF-7 cells were grown and treated in 12-well tissue culture plates until collection. Total RNA was extracted using TRIzol reagent (15596018, Life Technologies). Purified RNA was dissolved in DEPC water and quantified. 1 μg purified RNA per sample was converted to cDNA using qScript cDNA SuperMix (84034, Quantabio) according to manufacturer's instruction. Real-time PCR reagents were made for each sample by mixing 1 μL synthesized cDNA, 3 μL PCR-grade water, 5 μL SYBR Green reagent (A25742, Applied Biosystem), and 0.25 μL each primer for Myc and GAPDH. Reactions were set up in triplicate for each target of each sample. Real-time PCR was conducted in 96-well PCR plates with a QuantStudio 6 Flex Real-Time PCR System (Life Technologies). The cycling condition was 95° C. for 5 min, followed by 40 cycles at 95° C. for 15 s, 60° C. for 15 s, and 72° C. for 15 s. The relative Myc expression was calculated using the 2^−ΔΔCt method by normalizing against GAPDH as the endogenous control."}, "[7]": {"assay": "Metabolic stability in liver microsomes", "conditions": "human liver microsomes"}, "[8]": {"conditions": "male, mouse, microsomes, 1 μM"}, "[9]": {"assay": "in vivo", "format": "in vivo"}, "[10]": {"system": "c-Myc", "assay": "Western blot of MOLT-4 tumor xenograft tissue", "format": "in vivo, human"}, "[11]": {"system": "MOLT-4 human leukemia cells", "assay": "MOLT-4 xenograft in female NOD SCID mice", "format": "in vivo", "conditions": "20 mg/kg IV, 24 days after tumor inoculation", "text": "as §2"}, "[12]": {"system": "c-Myc", "assay": "Western blot of RD-ES tumor xenograft tissue", "format": "in vivo, human", "text": "as §1"}, "[13]": {"system": "γ-H2AX", "assay": "Western blot of RD-ES tumor xenograft tissue", "format": "in vivo, human", "text": "as §1"}, "[14]": {"format": "in vivo"}, "[15]": {"conditions": "male, CD1, mouse, plasma, iv, 1 mg/kg"}}, "note": "Read-outs that look alike come from different tables or passages of the source."}
{"smiles": "COc1cc2c3c(n(CCCNCCO)c(=O)c2cc1OC)-c1nc2c(cc1C3=O)OCO2", "note": "[G105, 6-(3-((2-Hydroxyethyl)amino)propyl)-2,3-dimethoxy-5H-[1,3]dioxolo[4″,5″:5′,6′]pyrido[3′,2′:4,5]cyclopenta[1,2-c]isoquinoline-5,12(6H)-dione]", "values": [{"measurement": "c-Myc/GAPDH, % Relative to Vehicle", "setting": "[1]; RS4;11, IV 10 mg/kg, 3 h", "value": "102.74 ± 3.45", "unit": "%"}, {"measurement": "c-Myc/GAPDH, % Relative to Vehicle", "setting": "[1]; RS4;11, IV 10 mg/kg, 9 h", "value": "74.98 ± 3.52", "unit": "%"}, {"measurement": "c-Myc/GAPDH, % Relative to Vehicle", "setting": "[1]; RS4;11, IV 20 mg/kg, 3 h", "value": "100.30 ± 16.76", "unit": "%"}, {"measurement": "c-Myc/GAPDH, % Relative to Vehicle", "setting": "[1]; RS4;11, IV 20 mg/kg, 9 h", "value": "80.45 ± 3.93", "unit": "%"}, {"measurement": "γ-H2AX/GAPDH, % Relative to Vehicle", "setting": "[2]; MOLT-4, IV 10 mg/kg, 3 h", "value": "60.98 ± 8.93", "unit": "%"}, {"measurement": "γ-H2AX/GAPDH, % Relative to Vehicle", "setting": "[2]; MOLT-4, IV 10 mg/kg, 9 h", "value": "172.03 ± 47.41", "unit": "%"}, {"measurement": "γ-H2AX/GAPDH, % Relative to Vehicle", "setting": "[2]; MOLT-4, IV 20 mg/kg, 3 h", "value": "56.62 ± 11.87", "unit": "%"}, {"measurement": "γ-H2AX/GAPDH, % Relative to Vehicle", "setting": "[2]; MOLT-4, IV 20 mg/kg, 9 h", "value": "109.66 ± 28.34", "unit": "%"}, {"measurement": "toxicity estimated from decrease in animal weight", "setting": "[3]; 20 mg/kg IV", "value": "most toxic"}, {"measurement": "reduction of tumor volume", "setting": "[3]; IV days 1-5 and 11-15, G105 20 mg/kg, G104 15 and 30 mg/kg", "value": "most potent"}, {"measurement": "AUCInf", "setting": "[4]; IV 1 mg/kg, male CD1 mice", "value": 155, "unit": "ng·h/mL"}, {"measurement": "AUClast", "setting": "[4]; IV 1 mg/kg, male CD1 mice", "value": 151, "unit": "ng·h/mL"}, {"measurement": "AUClast/D", "setting": "[4]; IV 1 mg/kg, male CD1 mice", "value": 151, "unit": "ng·h/mL"}, {"measurement": "AUC—% Extrap—obs", "setting": "[4]; IV 1 mg/kg, male CD1 mice", "value": 2.61, "unit": "%"}, {"measurement": "C0", "setting": "[4]; IV 1 mg/kg, male CD1 mice", "value": 177, "unit": "ng/mL"}, {"measurement": "Cl_obs", "setting": "[4]; IV 1 mg/kg, male CD1 mice", "value": 107, "unit": "mL/min/kg"}, {"measurement": "MRTInf—obs", "setting": "[4]; IV 1 mg/kg, male CD1 mice", "value": 1.49, "unit": "h"}, {"measurement": "T1/2", "setting": "[4]; IV 1 mg/kg, male CD1 mice", "value": 1.84, "unit": "h"}, {"measurement": "AUCInf", "setting": "[4]; PO 10 mg/kg, male CD1 mice", "value": 28.8, "unit": "ng·h/mL"}, {"measurement": "AUClast", "setting": "[4]; PO 10 mg/kg, male CD1 mice", "value": 18.0, "unit": "ng·h/mL"}, {"measurement": "AUClast/D", "setting": "[4]; PO 10 mg/kg, male CD1 mice", "value": 1.80, "unit": "ng·h/mL"}, {"measurement": "AUC—% Extrap—obs", "setting": "[4]; PO 10 mg/kg, male CD1 mice", "value": 37.3, "unit": "%"}, {"measurement": "Cmax", "setting": "[4]; PO 10 mg/kg, male CD1 mice", "value": 3.50, "unit": "ng/mL"}, {"measurement": "F (fraction of the dose absorbed)", "setting": "[4]; PO 10 mg/kg, male CD1 mice", "value": 1.19, "unit": "%"}, {"measurement": "MRTInf—obs", "setting": "[4]; PO 10 mg/kg, male CD1 mice", "value": 7.86, "unit": "h"}, {"measurement": "T1/2", "setting": "[4]; PO 10 mg/kg, male CD1 mice", "value": 5.20, "unit": "h"}, {"measurement": "Tmax", "setting": "[4]; PO 10 mg/kg, male CD1 mice", "value": 0.500, "unit": "h"}, {"measurement": "Vd", "setting": "[4]; [15]", "value": 9.62, "unit": "L/kg"}, {"measurement": "half-life", "setting": "[4]; [15]", "value": 1.84, "unit": "h"}, {"measurement": "half-life", "setting": "[4]; male, CD1, mouse, plasma, po, 10 mg/kg", "value": 5.2, "unit": "h"}, {"measurement": "γ-H2AX/GAPDH, % Relative to Vehicle", "setting": "[5]; RS4;11, IV 10 mg/kg, 3 h", "value": "67.00 ± 2.90", "unit": "%"}, {"measurement": "γ-H2AX/GAPDH, % Relative to Vehicle", "setting": "[5]; RS4;11, IV 10 mg/kg, 9 h", "value": "166.37 ± 40.45", "unit": "%"}, {"measurement": "γ-H2AX/GAPDH, % Relative to Vehicle", "setting": "[5]; RS4;11, IV 20 mg/kg, 3 h", "value": "219.29 ± 82.49", "unit": "%"}, {"measurement": "γ-H2AX/GAPDH, % Relative to Vehicle", "setting": "[5]; RS4;11, IV 20 mg/kg, 9 h", "value": "540.94 ± 97.90", "unit": "%"}, {"measurement": "MYC mRNA level", "setting": "[6]", "value": "significantly lowered MYC mRNA levels"}, {"measurement": "Scaled-up CLint", "setting": "[7]", "value": 7.67, "unit": "mL/min/kg"}, {"measurement": "in vitro CLint", "setting": "[7]", "value": 6.12, "unit": "μL/min/mg protein"}, {"measurement": "T1/2", "setting": "[7]; 1 μM", "value": 3.7753, "unit": "h"}, {"measurement": "Scaled-up CLint", "setting": "[8]", "value": 14.10, "unit": "mL/min/kg"}, {"measurement": "T1/2", "setting": "[8]", "value": 7.1658, "unit": "h"}, {"measurement": "in vitro CLint", "setting": "[8]", "value": 3.22, "unit": "μL/min/mg protein"}, {"measurement": "Mean Tumor/Plasma Ratio", "setting": "[9]; RS4;11, 3 h, IV 10 mg/kg", "value": "62.3 ± 17.7"}, {"measurement": "Mean Tumor/Plasma Ratio", "setting": "[9]; RS4;11, 3 h, IV 20 mg/kg", "value": "111 ± 18"}, {"measurement": "Mean Tumor/Plasma Ratio", "setting": "[9]; RS4;11, 9 h, IV 10 mg/kg", "value": "185 ± 25"}, {"measurement": "Mean Tumor/Plasma Ratio", "setting": "[9]; RS4;11, 9 h, IV 20 mg/kg", "value": "383 ± 183"}, {"measurement": "c-Myc/GAPDH, % Relative to Vehicle", "setting": "[10]; MOLT-4, IV 10 mg/kg, 3 h", "value": "110.56 ± 4.90", "unit": "%"}, {"measurement": "c-Myc/GAPDH, % Relative to Vehicle", "setting": "[10]; MOLT-4, IV 10 mg/kg, 9 h", "value": "84.53 ± 6.26", "unit": "%"}, {"measurement": "c-Myc/GAPDH, % Relative to Vehicle", "setting": "[10]; MOLT-4, IV 20 mg/kg, 3 h", "value": "96.74 ± 9.71", "unit": "%"}, {"measurement": "c-Myc/GAPDH, % Relative to Vehicle", "setting": "[10]; MOLT-4, IV 20 mg/kg, 9 h", "value": "83.89 ± 10.06", "unit": "%"}, {"measurement": "average animal weight relative to initial body weight", "setting": "[11]", "value": "80.9±1.1", "unit": "%"}, {"measurement": "c-Myc/GAPDH, % Relative to Vehicle", "setting": "[12]; IV 10 mg/kg, 3 h", "value": "128.18 ± 13.67", "unit": "%"}, {"measurement": "c-Myc/GAPDH, % Relative to Vehicle", "setting": "[12]; IV 10 mg/kg, 6 h", "value": "69.45 ± 15.02", "unit": "%"}, {"measurement": "c-Myc/GAPDH, % Relative to Vehicle", "setting": "[12]; IV 20 mg/kg, 3 h", "value": "154.98 ± 17.80", "unit": "%"}, {"measurement": "c-Myc/GAPDH, % Relative to Vehicle", "setting": "[12]; IV 20 mg/kg, 6 h", "value": "71.97 ± 14.55", "unit": "%"}, {"measurement": "γ-H2AX/GAPDH, % Relative to Vehicle", "setting": "[13]; IV 10 mg/kg, 3 h", "value": "145.80 ± 32.79", "unit": "%"}, {"measurement": "γ-H2AX/GAPDH, % Relative to Vehicle", "setting": "[13]; IV 10 mg/kg, 6 h", "value": "111.73 ± 14.44", "unit": "%"}, {"measurement": "γ-H2AX/GAPDH, % Relative to Vehicle", "setting": "[13]; IV 20 mg/kg, 3 h", "value": "134.62 ± 18.03", "unit": "%"}, {"measurement": "γ-H2AX/GAPDH, % Relative to Vehicle", "setting": "[13]; IV 20 mg/kg, 6 h", "value": "109.81 ± 27.72", "unit": "%"}, {"measurement": "Mean Tumor/Plasma Ratio", "setting": "[14]; MOLT-4, 3 h, IV 10 mg/kg", "value": "50 ± 13.4"}, {"measurement": "Mean Tumor/Plasma Ratio", "setting": "[14]; MOLT-4, 9 h, IV 10 mg/kg", "value": "357 ± 180"}, {"measurement": "Mean Tumor/Plasma Ratio", "setting": "[14]; MOLT-4, 9 h, IV 20 mg/kg", "value": "326 ± 102"}]}
